Converted amounts (≈) assume the structure as drawn.
Tests used:
MbtA = settings: 44.2 μM MbtA, ligand 0.75 mM
HepG2 cells = assay: HepG2 cytotoxicity
M. tuberculosis H37Rv = assay: MIC determination against M. tuberculosis H37Rv in liquid medium; assay type: cell-based; settings: Mycobacterium tuberculosis, 120 h, read-out: H37Rv MIC90
HepG2 cytotoxicity = settings: human, HepG2 cells

Compound	IC50 (RAW 264.7 cells)	Response in STD and Water-LOGSY experiments (MbtA)	HepG2 cytotoxicity, IC50 towards cells grown in both media (HepG2 cells; glucose and galactose media)	Ratio (Glu/Gal) (HepG2 cells; ratio of HepG2 IC50 in glucose to galactose medium (mitochondrial toxicity))	MIC90 (M. tuberculosis H37Rv)	IC50 at 2 days (HepG2 cytotoxicity)
O=[N+]([O-])c1cc(C(F)(F)F)ccc1NCCc1c[nH]c2ccc(O)cc12 [Compound 5, 5-hydroxy-indol-3-ethylamino-(2-nitro-4-trifluoromethyl)benzene]	29 µM	positive responses	relatively low cytotoxicity	1.2		
CO[C@H]1/C=C/O[C@@]2(C)Oc3c(C)c(O)c4c(O)c(c(/C=N/N5CCN(C)CC5)c(O)c4c3C2=O)NC(=O)/C(C)=C\C=C\[C@H](C)[C@H](O)[C@@H](C)[C@@H](O)[C@@H](C)[C@H](OC(C)=O)[C@@H]1C [Rifampicin, reference compound]					0.1 µM (≈ 0.0823 µg/mL)	> 100 µM

Source: article PMC6800809 (ChemMedChem, 2019)
